Experimental data as given in BindingDB's records for doi:10.1074/jbc.M501367200 (Berlex Biosciences, 2005).

Molecular target: T1, 3-phosphoinositide-dependent protein kinase 1 (Homo sapiens, UniProt O15530)
T1 sequence (O15530 whole entry): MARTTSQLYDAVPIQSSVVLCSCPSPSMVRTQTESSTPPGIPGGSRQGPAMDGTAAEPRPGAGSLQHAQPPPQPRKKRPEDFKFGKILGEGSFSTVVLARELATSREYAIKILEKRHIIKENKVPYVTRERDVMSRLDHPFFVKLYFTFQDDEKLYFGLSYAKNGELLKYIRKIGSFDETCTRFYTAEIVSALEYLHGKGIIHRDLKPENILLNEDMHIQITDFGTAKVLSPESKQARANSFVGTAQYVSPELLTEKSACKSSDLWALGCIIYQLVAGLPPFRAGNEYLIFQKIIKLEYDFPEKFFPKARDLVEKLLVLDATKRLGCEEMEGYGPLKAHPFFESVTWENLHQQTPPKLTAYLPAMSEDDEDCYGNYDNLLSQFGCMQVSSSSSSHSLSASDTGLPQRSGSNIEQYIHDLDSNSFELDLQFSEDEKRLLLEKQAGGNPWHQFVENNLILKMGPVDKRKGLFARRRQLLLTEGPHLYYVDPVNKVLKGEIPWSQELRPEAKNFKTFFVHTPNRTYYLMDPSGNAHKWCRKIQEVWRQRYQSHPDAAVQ
Test: PDK1-mediated AKT2 Activation Assay (cAKT2 33P-SPA)
Details: pH 7.2; 22 °C
Method: The coupled assay can detect inhibitors of AKT2 activation, as well as direct inhibitors of PDK1 or AKT2. Inactive AKT2 is activated in situ by incubating with PDK1 and PtdIns-3, 4-P2 in the presence of compound, 33P-ATP, and a biotinylated peptide substrate for AKT2. The peptide is captured on streptavidin-coated SPA beads for detection.

## O=C(Nc1cccc(Nc2ncc(Br)c(NCCc3c[nH]cn3)n2)c1)N1CCCC1 [N-{3-[(5-bromo-4-{[2-(1H-imidazol-4-yl)ethyl]amino}pyrimidin-2-yl)amino]phenyl}pyrrolidine-1-carboxamide]
  IC50: 12 nM

## O=C(NCCCNc1nc(Nc2cccc(NC(=O)N3CCCC3)c2)ncc1I)c1cccs1 [N-{3-[(5-iodo-4-{[3-(thiophen-2-ylformamido)propyl]amino}pyrimidin-2-yl)amino]phenyl}pyrrolidine-1-carboxamide]
  IC50: 6 nM
